Reference: ChEMBL document CHEMBL1154288, “The discovery and unique pharmacological profile of RO4938581 and RO4882224 as potent and selective GABAA alpha5 inverse agonists for the treatment of cognitive dysfunction” (Bioorg Med Chem Lett, 2009)
Activity calls are given as the source filed them. No cut-off for these calls is given here.

Columns and labels:
[1] = target: T1, GABA-A receptor; alpha-2/beta-3/gamma-2 (Homo sapiens, UniProt P18507+P28472+P47869); assay: Displacement of [3H]Flumazenil from cloned human GABA alpha-2-beta-3-gamma-2 receptor expressed in HEK293 cells; type: cell-based
T1 sequence (P18507 whole entry): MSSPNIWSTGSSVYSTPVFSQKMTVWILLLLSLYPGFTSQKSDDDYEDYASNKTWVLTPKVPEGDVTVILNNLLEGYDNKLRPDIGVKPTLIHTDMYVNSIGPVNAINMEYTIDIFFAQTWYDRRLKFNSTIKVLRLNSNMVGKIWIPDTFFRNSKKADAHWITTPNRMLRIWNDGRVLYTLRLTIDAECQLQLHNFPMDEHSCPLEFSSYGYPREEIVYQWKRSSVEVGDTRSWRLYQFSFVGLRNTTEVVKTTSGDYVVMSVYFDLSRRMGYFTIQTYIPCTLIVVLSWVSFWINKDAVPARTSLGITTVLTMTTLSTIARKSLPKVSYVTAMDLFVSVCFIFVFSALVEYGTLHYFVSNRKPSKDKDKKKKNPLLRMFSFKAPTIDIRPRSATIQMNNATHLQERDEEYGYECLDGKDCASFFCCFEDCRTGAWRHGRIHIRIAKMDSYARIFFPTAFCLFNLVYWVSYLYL
T1 sequence (P28472 whole entry): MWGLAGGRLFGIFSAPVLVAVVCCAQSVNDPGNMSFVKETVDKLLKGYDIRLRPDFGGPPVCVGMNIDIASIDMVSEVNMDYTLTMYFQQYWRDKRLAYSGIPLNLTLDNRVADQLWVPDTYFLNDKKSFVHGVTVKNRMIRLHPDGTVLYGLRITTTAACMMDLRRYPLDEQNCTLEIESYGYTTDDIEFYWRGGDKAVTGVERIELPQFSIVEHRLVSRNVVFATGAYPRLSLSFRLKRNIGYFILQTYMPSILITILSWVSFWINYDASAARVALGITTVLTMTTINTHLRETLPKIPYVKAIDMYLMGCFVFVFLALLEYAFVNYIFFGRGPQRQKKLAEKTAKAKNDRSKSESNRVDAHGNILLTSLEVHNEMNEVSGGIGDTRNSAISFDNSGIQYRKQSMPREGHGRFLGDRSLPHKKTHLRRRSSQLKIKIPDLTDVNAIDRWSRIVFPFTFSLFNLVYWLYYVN
T1 sequence (P47869 whole entry): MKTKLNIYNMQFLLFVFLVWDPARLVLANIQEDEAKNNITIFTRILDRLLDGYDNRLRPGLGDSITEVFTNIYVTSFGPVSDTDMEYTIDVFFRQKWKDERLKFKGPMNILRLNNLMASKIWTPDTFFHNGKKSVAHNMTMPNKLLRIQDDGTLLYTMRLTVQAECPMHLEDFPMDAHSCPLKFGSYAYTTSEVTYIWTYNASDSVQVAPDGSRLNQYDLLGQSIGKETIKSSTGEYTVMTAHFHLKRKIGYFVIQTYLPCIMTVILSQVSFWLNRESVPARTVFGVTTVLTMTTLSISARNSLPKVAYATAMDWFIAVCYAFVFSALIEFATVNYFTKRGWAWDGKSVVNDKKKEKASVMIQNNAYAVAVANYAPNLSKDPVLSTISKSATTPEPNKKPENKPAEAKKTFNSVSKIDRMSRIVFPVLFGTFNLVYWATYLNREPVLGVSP

[2] = target: T2, GABA-A receptor; alpha-3/beta-3/gamma-2 (Homo sapiens, UniProt P18507+P28472+P34903); assay: Displacement of [3H]Flumazenil from cloned human GABA alpha-3-beta-3-gamma-2 receptor expressed in HEK293 cells; type: cell-based
T2 sequence (P18507 whole entry): T1 sequence (P18507 whole entry)
T2 sequence (P28472 whole entry): T1 sequence (P28472 whole entry)
T2 sequence (P34903 whole entry): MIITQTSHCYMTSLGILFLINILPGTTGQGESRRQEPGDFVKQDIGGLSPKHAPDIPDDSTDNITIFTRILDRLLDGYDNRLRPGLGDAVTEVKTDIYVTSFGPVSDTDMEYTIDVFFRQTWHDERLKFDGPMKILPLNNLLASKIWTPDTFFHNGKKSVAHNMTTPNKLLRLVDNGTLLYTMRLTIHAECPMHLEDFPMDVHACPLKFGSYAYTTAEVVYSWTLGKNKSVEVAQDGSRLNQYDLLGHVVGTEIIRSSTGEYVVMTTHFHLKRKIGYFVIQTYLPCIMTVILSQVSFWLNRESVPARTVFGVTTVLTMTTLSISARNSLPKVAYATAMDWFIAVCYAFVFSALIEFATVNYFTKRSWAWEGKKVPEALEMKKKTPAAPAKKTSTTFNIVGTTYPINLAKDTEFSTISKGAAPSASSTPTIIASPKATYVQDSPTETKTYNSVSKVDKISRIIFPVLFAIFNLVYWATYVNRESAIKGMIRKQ

[3] = test system: Rattus norvegicus; assay: Behavioral effect in Lister hooded rat assessed as reversal of scopolamine-induced working memory impairment at 1 mg/kg, po after 24 seconds by delayed match to position task method; type: functional, organism-based; parameters: dose 1 mg/kg
[4] = target: GABA-A receptor; alpha-5/beta-3/gamma-2 (Homo sapiens) (UniProt P18507+P28472+P31644); assay: Inverse agonist activity at human GABA alpha-5-beta-3-gamma-2 receptor expressed in Xenopus laevis oocyts by electrophysiology assay relative to GABA; type: functional
[5] = test system: Rattus norvegicus; assay: Behavioral effect in Lister hooded rat assessed as reversal of scopolamine-induced working memory impairment at 1 mg/kg, po after 16 seconds by delayed match to position task method; type: functional, organism-based; parameters: dose 1 mg/kg
[6] = test system: Rattus norvegicus; assay: Behavioral effect in Lister hooded rat assessed as reversal of scopolamine-induced working memory impairment at 1 mg/kg, po by delayed match to position task method; type: functional, organism-based; parameters: dose 1 mg/kg
[7] = species on record: Mus musculus; assay: Anticonvulsive activity in mouse audiogenic seizure model; type: functional, organism-based
[8] = test system: Rattus norvegicus; assay: Behavioral effect in Lister hooded rat assessed as reversal of scopolamine-induced working memory impairment at 0.1 mg/kg, po after 24 seconds by delayed match to position task method; type: functional, organism-based; parameters: dose 0.1 mg/kg
[9] = test system: Cynomolgus monkey; assay: Behavioral effect in cynomolgus monkey assessed as improved executive function at 3 to10 mg/kg, po by object retrieval task method; type: functional, organism-based; conditions: Macaca fascicularis
[10] = species on record: Rattus norvegicus; assay: Anxiogenic activity in Lister hooded rat by elevated plus maze test; type: functional, organism-based
[11] = test system: Rattus norvegicus; assay: Behavioral effect in Lister hooded rat assessed as inhibition of diazepam-induced spartial learning impairment at 1 to 10 mg/kg, po by delayed match to position task method; type: functional, organism-based
[12] = species on record: Rattus norvegicus; assay: Anxiogenic activity in Lister hooded rat by social approach avoidance test; type: functional, organism-based
[13] = test system: Rattus norvegicus; assay: Behavioral effect in Lister hooded rat assessed as reversal of scopolamine-induced working memory impairment at 0.3 to 1 mg/kg, po by delayed match to position task method; type: functional, organism-based

Row | SMILES | Ki [1] [nM] | Ki [2] [nM] | Activity [3] | Activity [4] | Activity [5] | Activity [6] | Activity [7] | Activity [8] | Activity [9] | Activity [10] | Activity [11] | Activity [12] | Activity [13]
1 | Cc1ncn2c1Cn1ncnc1-c1cc(Cl)ccc1-2 | 219 | 265 |  |  |  |  |  |  |  |  |  |  | 
2 | Clc1ccc2c(c1)-c1ncnn1Cc1c(Cl)ncn1-2 | 24 | 14 | Active | Active | Active | inactive |  |  |  |  |  |  | 
3 | FC(F)c1ncn2c1Cn1ncnc1-c1cc(Br)ccc1-2 | 185 | 80 |  |  |  |  | inactive | Active | Active | inactive | Active | inactive | Active
4 | Clc1ncn2c1Cn1ncnc1-c1cc(Br)ccc1-2 | 24 | 8.8 |  |  |  |  |  |  |  |  |  |  | 
